Assay results reported in patent US10703764B2, “Benzopiperazine compositions as BET bromodomain inhibitors” (FORMA Therapeutics, Inc., priority 2013, dated 2020).
Like-named read-outs stand apart in the source and are kept apart here.

How the values were obtained:
MV4-11 cells = assay: Oncology cell growth assay (3-day proliferation, CellTiter-Glo); format: cell-based; conditions: Homo sapiens, AML cell line MV4-11, 72 hours, compounds grouped by IC50 range, read-out: MV4-11 IC50 (inhibition of proliferation, gIC50)
In short: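 72 h, 37° C, 5% CO2; MV4-11, 3000 cells/well, RPMI 1640 + 10% FBS. Compound final 10, 3.3, 1.1, 0.37, 0.12, 0.041, 0.013, 0.0045 μM. Readout CellTiter-Glo luminescence; gIC50 by 4-parameter logistic fit, normalised to DMSO and no-cell background.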

BRD4 BD2 = biological target: T1, BRD4 BD2 (Homo sapiens, UniProt O60885); assay: AlphaScreen binding assay, BRD4 Bromodomain 2
T1 construct: made in house
In short: (§1)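 Compound dilution series were mixed with His-tagged BRD4 bromodomain and biotinylated tetra-acetylated H4 (1-21) peptide at pH 7.3 (BD1 and peptide at 50 nM, BD2 and peptide at 100 nM). Donor and acceptor beads were then added, and plates were equilibrated at least 1 h before reading. IC50 values were fitted with a four-parameter logistic model.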

BRD4 BD1 = biological target: T2, BRD4 BD1 (Homo sapiens, UniProt O60885); assay: AlphaScreen binding assay, BRD4 Bromodomain 1
T2 construct: made in house
In short: as §1

Compound | IC50 (MV4-11 cells; MV4-11, 72 h) | IC50 (BRD4 BD2) | IC50 (BRD4 BD1) | IC50 (MV4-11 cells)
CC(=O)N1c2ccc(-c3cnn(CC(=O)N4CCOCC4)c3)cc2N(C(=O)OC(C)C)C[C@@H]1C [Example I-654] | 100 to 500 nM | 50 to 500 nM | 100 to 1000 nM | 
CC(=O)N1c2ccc(-c3cccc(S(N)(=O)=O)c3)cc2N(C(=O)C2CCC2)C[C@@H]1C [Example I-1040] | 100 to 500 nM | < 50 nM | 1000 to 10000 nM | 
CC(C)OC(=O)N1C[C@H](C)N(C(=O)C2CC2)c2ccc(-c3cnn(CC(C)(C)O)c3)cc21 [Example I-328] | 100 to 500 nM | 50 to 500 nM | 100 to 1000 nM | 
CCOC(=O)N1C[C@H](C)N(C(C)=O)c2ccc(-c3cccc(S(=O)(=O)NCCO)c3)cc21 [Example I-1110] | 100 to 500 nM | 50 to 500 nM | 1000 to 10000 nM | 
CC(=O)N1c2cc(Cl)c(-c3ccc(S(C)(=O)=O)cc3)cc2N(C(=O)OC(C)C)C[C@@H]1C [Example I-218, Isopropyl (S)-4-acetyl-6-chloro-3-methyl-7-(4-(methylsulfonyl)phenyl)-3,4-dihydroquinoxaline-1(2H)-carboxylate] | > 500 nM | > 500 nM | 1000 to 10000 nM | 
CC(=O)N1c2ccc(-c3cccc(N4CCCS4(=O)=O)c3)cc2N(C(=O)C2CC2)C[C@@H]1C [Example I-1152] | 100 to 500 nM | 50 to 500 nM | 1000 to 10000 nM | 
CCOC(=O)N1C[C@H](C)N(C(C)=O)c2ccc(-c3ccc(S(=O)(=O)C4CC4)cc3)cc21 [Example I-1033] | 100 to 500 nM | 50 to 500 nM | 100 to 1000 nM | 
CC(=O)N1c2ccc(-c3cnn(Cc4cnccn4)c3)cc2N(C(=O)C2CC2)C[C@@H]1C [Example I-123, (S)-1-(4-(cyclopropanecarbonyl)-2-methyl-6-(1-(pyrazin-2-ylmethyl)-1H-pyrazol-4-yl)-3,4-dihydroquinoxalin-1(2H)-yl)ethanone] | > 500 nM | 50 to 500 nM | 1000 to 10000 nM | 
CC(=O)N1c2ccc(-c3cccc(S(N)(=O)=O)c3)cc2N(C(=O)OC2CCOCC2)C[C@@H]1C [Example I-1220] | 100 to 500 nM | 50 to 500 nM | 100 to 1000 nM | 
COC(=O)N1c2ccc(-c3cnn(C4COC4)c3)cc2N(C(=O)OC(C)C)C[C@@H]1C [Example I-326] | > 500 nM | 50 to 500 nM | 100 to 1000 nM | 
CC(=O)N1c2ccc(-c3cnn(C4CC4)c3)cc2N(C(=O)Oc2cccc(F)c2)C[C@@H]1C [Example I-502] | 100 to 500 nM | 50 to 500 nM | 100 to 1000 nM | 
CC(=O)N1c2ccc(-c3ccc(S(=O)(=O)CC4CC4)cc3)cc2N(C(=O)C2CCC2)C[C@@H]1C [Example I-1075] | > 500 nM | 50 to 500 nM | 1000 to 10000 nM | 
CC(=O)N1c2ccc(-c3cccc(S(N)(=O)=O)c3)cc2N(C(=O)OC2CCCCC2)C[C@@H]1C [Example I-1219] | < 100 nM | < 50 nM | 100 to 1000 nM | 
CC(=O)N1c2ccc(-c3ccc(NS(=O)(=O)C4CC4)cc3)cc2N(C(=O)c2ccco2)C[C@@H]1C [Example I-287] | < 100 nM | < 50 nM | 100 to 1000 nM | 
CC(=O)N1c2ccc(-c3cnn(CCN(C)C)c3)cc2N(C(=O)C2CC2)C[C@@H]1C [Example I-146, (S)-1-(4-(cyclopropanecarbonyl)-6-(1-(2-(dimethylamino)ethyl)-1H-pyrazol-4-yl)-2-methyl-3,4-dihydroquinoxalin-1 (2H)-yl)ethanone] | > 500 nM | 50 to 500 nM | 1000 to 10000 nM | 
CCOC(=O)N1C[C@H](C)N(C(C)=O)c2ccc(-c3ccc(S(=O)(=O)CC(C)C)cc3)cc21 [Example I-1080] | > 500 nM | 50 to 500 nM | 1000 to 10000 nM | 

Compound | IC50 (MV4-11 cells; MV4-11, 72 h) | IC50 (BRD4 BD2) | IC50 (BRD4 BD1) | IC50 (MV4-11 cells)
CC(=O)N1c2ccc(-c3cnn(C4CC4)c3)cc2N(C(=O)Oc2ccc3ncsc3c2)C[C@@H]1C [Example I-527] | < 100 nM | 50 to 500 nM | 100 to 1000 nM | 
COC(=O)N1c2ccc(-c3cnn(Cc4c[nH]cn4)c3)cc2N(C(=O)OC(C)C)CC1C (stereo not drawn) [Example I-631] | > 500 nM | 50 to 500 nM | 100 to 1000 nM | 
CC(=O)N1c2ccc(-c3ccc(S(C)(=O)=O)cc3)cc2N(C(=O)c2cc3cnccc3[nH]2)CC1C (stereo not drawn) [Example I-778] | > 500 nM | 50 to 500 nM | 1000 to 10000 nM | 
CC(=O)N1c2ccc(-c3cccc(-c4ccccc4)c3)cc2N(C(=O)COc2ccccc2)C[C@@H]1C [Example I-792] | > 500 nM | 50 to 500 nM | > 10000 nM | 
CCOC(=O)N1C[C@H](C)N(C(C)=O)c2ccc(-c3cccc(S(C)(=O)=O)c3)cc21 [Example I-1052] | > 500 nM | 50 to 500 nM | 1000 to 10000 nM | 
CC(=O)N1c2ccc(-c3cc(Cl)cc(S(C)(=O)=O)c3)cc2N(C(=O)OC(C)C)C[C@@H]1C [Example I-1097] | > 500 nM | > 500 nM | 1000 to 10000 nM | 
CC(=O)N1c2ccc(-c3ccc(NS(C)(=O)=O)cc3)cc2N(C(=O)OC2CCC(F)(F)CC2)C[C@@H]1C [Example I-31, (S)-4,4-difluorocyclohexyl 4-acetyl-3-methyl-7-(4-(methylsulfonamido)phenyl)-3,4-dihydroquinoxaline-1(2H)-carboxylate] | 100 to 500 nM | 50 to 500 nM | 100 to 1000 nM | 
CNC(=O)N1c2ncc(-c3cnn(C4CC4)c3)cc2N(C(=O)OC(C)C)C[C@@H]1C [Example I-194, (S)-isopropyl 7-(1-cyclopropyl-1H-pyrazol-4-yl)-3-methyl-4-(methylcarbamoyl)-3,4-dihydropyrido[2,3-b]pyrazine-1(2H)-carboxylate] |  | 50 to 500 nM | 1000 to 10000 nM | > 500 nM
CC(=O)N1c2ccc(-c3ccc(F)c(S(C)(=O)=O)c3)cc2N(C(=O)OC2CCCCC2)C[C@@H]1C [Example I-1249] | 100 to 500 nM | 50 to 500 nM | 1000 to 10000 nM | 
CC(=O)N1c2ccc(-c3cnn(C4COC4)c3)cc2N(C(=O)OC2COC2)C[C@@H]1C [Example I-59, (S)-oxetan-3-yl 4-acetyl-3-methyl-7-(1-(oxetan-3-yl)-1H-pyrazol-4-yl)-3,4-dihydroquinoxaline-1(2H)-carboxylate] | > 500 nM | 50 to 500 nM | 100 to 1000 nM | 
CC(=O)N1c2ccc(-c3ccc(N4CCCS4(=O)=O)cc3)cc2N(C(=O)C2CC2)C[C@@H]1C [Example I-439] | 100 to 500 nM | 50 to 500 nM | 100 to 1000 nM | 
COc1ncccc1OC(=O)N1C[C@H](C)N(C(C)=O)c2ccc(-c3cnn(C4CC4)c3)cc21 [Example I-521] | < 100 nM | < 50 nM | < 100 nM | 
CC(=O)N1c2ccc(-c3ccc(S(C)(=O)=O)cc3)cc2N(C(=O)C2CC2)C[C@@H]1C [Example I-781] | > 500 nM | 50 to 500 nM | 1000 to 10000 nM | 
CC(=O)N1c2ccc(-c3ccc(S(N)(=O)=O)cc3)cc2N(C(=O)c2ccco2)C[C@@H]1C [Example I-281] | 100 to 500 nM | < 50 nM | 1000 to 10000 nM | 
COC(=O)N1c2ccc(-c3cnn(C4CC4)c3)cc2N(C(=O)OC(C)C)C[C@@H]1C [Example I-43, (S)-4-isopropyl 1-methyl 6-(1-cyclopropyl-1H-pyrazol-4-yl)-2-methyl-2,3-dihydroquinoxaline-1,4-dicarboxylate] | > 500 nM | 50 to 500 nM | 100 to 1000 nM | 
